Counter-ions that a name gives are not always drawn. Like-named read-outs stand apart in the source and are kept apart here. Each block holds one molecule with its values, some of them ahead of it.
What was measured:
[1] = exposure to humidity, cited from earlier work
[2] = for Related Substances: Chlorothiamine (Impurity C) / Related Substances: Thiamine sulfate ester (Impurity A) / Related Substances: Desmethylthiamine (Impurity B) / Related Substances: Total Impurities: EP 8.6 HPLC Method; for Related Substances: Chlorothiamine (Impurity C) / Related Substances: Thiamine sulfate ester (Impurity A): limit NMT 0.15%; for Related Substances: Desmethylthiamine (Impurity B): limit NMT 0.3%; for Related Substances: Total Impurities: limit NMT 0.5%; for Assay: limit 98.0%-102.0%; for Sulfates: limit EP 8.6 NMT 300 ppm; for Solution S: limit EP 8.6 Practically Clear and Odorless; for Heavy Metals / Appearance: limit Meets EP 8.6; for ID: Chloride / ID: FTIR / Limit of Nitrate: limit Meets USP 39; for Absorbance of Solution: limit USP 39 NMT 0.025 Abs; for Residue on Ignition: limit USP 39 NMT 0.2%; for Water: limit USP 39 NMT 5.0%; for pH: limit USP 39 pH 2.7-3.4
[3] = cited from earlier work
[4] = 36 Months, listed as T111116, hydrochloride monohydrate
[5] = 36 Months, listed as T111201, hydrochloride monohydrate
[6] = 36 Months, listed as T111202, hydrochloride monohydrate
[7] = Time 0, listed as T111116, hydrochloride monohydrate
[8] = Time 0, listed as T111201, hydrochloride monohydrate
[9] = Time 0, listed as T111202, hydrochloride monohydrate

SMILES: Cc1ncc(C[n+]2csc(CCO)c2C)c(N)n1 [Example 1, Thiamine Hydrochloride Hemihydrate]
- Hygroscopicity ([1]; Hydrochloride Hemihydrate): less hygroscopic

- Related Substances: Chlorothiamine (Impurity C) ([2]; 36 Months): <0.05%
- Related Substances: Thiamine sulfate ester (Impurity A) ([2]; 36 Months): 0.07%
- Related Substances: Desmethylthiamine (Impurity B) [2, 4]: 0.07%
- Related Substances: Desmethylthiamine (Impurity B) [2, 5]: 0.07%
- Related Substances: Desmethylthiamine (Impurity B) [2, 6]: 0.06%
- Related Substances: Total Impurities [2, 4]: 0.13%
- Related Substances: Total Impurities [2, 5]: 0.14%
- Related Substances: Total Impurities [2, 6]: 0.13%
- Assay [2, 4]: 99.8%
- Assay [2, 5]: 99.6%
- Assay [2, 6]: 99.1%
- Sulfates ([2]; 36 Months): Complies
- Solution S ([2]; 36 Months): Complies
- Heavy Metals ([2]; 36 Months): Complies
- Appearance ([2]; 36 Months, sealed foil lined polypropylene bags): Complies
- ID: Chloride ([2]; 36 Months): Complies
- ID: FTIR ([2]; 36 Months): Complies
- Limit of Nitrate ([2]; 36 Months): Complies
- Absorbance of Solution [2, 4]: 0.004 Abs
- Absorbance of Solution [2, 5]: 0.013 Abs
- Absorbance of Solution [2, 6]: 0.007 Abs
- Residue on Ignition ([2]; 36 Months): 0.0%
- Water [2, 4]: 3.7%
- Water [2, 5]: 2.7%
- Water [2, 6]: 4.0%
- pH [2, 4]: pH 2.9
- pH [2, 5]: pH 3.0
- pH [2, 6]: pH 3.1
- Related Substances: Chlorothiamine (Impurity C) ([2]; Time 0): <0.05%
- Related Substances: Thiamine sulfate ester (Impurity A) [2, 7]: <0.05%
- Related Substances: Thiamine sulfate ester (Impurity A) [2, 8]: 0.07%
- Related Substances: Thiamine sulfate ester (Impurity A) [2, 9]: 0.06%
- Related Substances: Desmethylthiamine (Impurity B) [2, 7]: <0.05%
- Related Substances: Desmethylthiamine (Impurity B) [2, 8]: 0.07%
- Related Substances: Desmethylthiamine (Impurity B) [2, 9]: 0.06%
- Related Substances: Total Impurities [2, 7]: Complies
- Related Substances: Total Impurities [2, 8]: 0.4%
- Related Substances: Total Impurities [2, 9]: 0.12%
- Assay [2, 7]: 99.0%
- Assay [2, 8]: 98.6%
- Assay [2, 9]: 99.2%
- Sulfates ([2]; Time 0): Complies
- Solution S ([2]; Time 0): Complies
- Appearance ([2]; Time 0): Complies
- Heavy Metals ([2]; Time 0): Complies
- ID: Chloride ([2]; Time 0): Complies
- ID: FTIR ([2]; Time 0): Complies
- Limit of Nitrate ([2]; Time 0): Complies
- Absorbance of Solution [2, 7]: 0.005 Abs
- Absorbance of Solution [2, 8]: 0.008 Abs
- Absorbance of Solution ([2]; Time 0, unit printed as %): 0.007%
- Residue on Ignition ([2]; Time 0): 0.0%
- Water [2, 7]: 3.2%
- Water [2, 8]: 2.0%
- Water [2, 9]: 3.3%
- pH [2, 7]: pH 3.3
- pH [2, 8]: pH 3.2
- pH [2, 9]: pH 3.2
- Storage stability ([2]; protected from moisture, […], USP or EP testing): stability up to three years
SMILES: Cc1ncc(C[n+]2csc(CCO)c2C)c(N)n1 [Thiamine hydrochloride monohydrate]
- Hygroscopicity ([1]; hydrochloride monohydrate): hygroscopic

SMILES: Cc1ncc(C[n+]2csc(CCO)c2C)c(N)n1 [Thiamine hydrochloride]
- Solubility in water [3]: high solubility in water

SMILES: Cc1ncc(C[n+]2csc(CCO)c2C)c(N)n1 [anhydrous form, Thiamine hydrochloride]
- Hygroscopicity ([1]; hydrochloride): readily absorbs moisture to form the monohydrate and hemihydrate
